Patent US12084521B2, “TLR9 inhibitors to suppress inflammatory response to pathogens” (University Of Maryland, Baltimore, priority 2018, dated 2024)

Columns and labels:
TLR9 signaling = test: Plasma cytokines after i.p. ODN 1668 in mice; type: in vivo, C57BL/6J mice
Method: (§1) Systemic cytokine levels were measured in plasma samples obtained 1, 3, and 5 hours after intraperitoneal (i.p.) administration of 7.86 nmol (50 μg) of ODN 1668 or 67 nmol of Pam3C per mouse, using ELISA kits from Biolegend™ Inc. CPDP were dissolved in PBS and administered i.p. at the dose of 200 nmol per mouse 1 hour before administration of a TLR agonist. For survival experiments, mice were sensitized to TLR9 agonists by i.p. injection of 20 mg of D-Gal 30 minutes before administration of peptides or PBS. ODN 1668 was used at the doses of 3.93 or 7.86 nmol/mouse (25 or 50 μg/mouse) 1.5 hours after D-Gal. Animal survival was monitored for 50 hours. All agents were administered i.p. in 500 μL volume of PBS. Animals had free access to food and water during the observation period. All animal experiments were conducted in accordance with the national guidelines for the care and use of laboratory animals under a protocol that was approved by the UMB IACUC.
To test the in vivo efficacy and specificity of 9R34-ΔN, C57BL/6J mice were mock-treated or treated i.p. with a single dose of inhibitory or control peptide (200 nmol/mouse) and challenged with TLR9 agonist ODN 1668 (7.86 nmol/mouse) or TLR2/1 agonist Pam3C (67 nmol/mouse) 1 hour later. Plasma concentrations of TNFα and IL-12-p40 were measured 1, 3, and 5 hours after the challenge. Both TLR agonists increased concentrations of TNFα and IL-12-p40 in 1 hour samples from below the limit of detection to about 1.2 and about 6 ng/mL in the case of ODN 1668, and to 0.12 ng/mL and 1 ng/mL after treatment with Pam3C.
Plasma TNFα and IL-12-p40 levels following intraperitioneal administration of ODN 1668 to C57Bl/6J mice in peptide-pretreated and control mice are shown in FIG. 14A and FIG. 14B. Data shown in these figures represent the means±SEM obtained in at least three independent experiments. The statistical significance of changes in cytokine concentrations was determined by a two-way ANOVA test; *p<0.001.

TLR2/1 signaling = test: Plasma cytokines after i.p. Pam3C in mice; type: in vivo, C57BL/6J mice; details: peptide 200 nmol/mouse i.p.; Pam3C 67 nmol/mouse
Method: as §1, with “Animals had free access to food and water during the observation period. All animal experiments were conducted in accordance with the national guidelines for the care and use of laboratory animals under a protocol that was approved by the UMB IACUC.” left out
To test the in vivo efficacy and specificity of 9R34-ΔN, C57BL/6J mice were mock-treated or treated i.p. with a single dose of inhibitory or control peptide (200 nmol/mouse) and challenged with TLR9 agonist ODN 1668 (7.86 nmol/mouse) or TLR2/1 agonist Pam3C (67 nmol/mouse) 1 hour later. Plasma concentrations of TNFα and IL-12-p40 were measured 1, 3, and 5 hours after the challenge. […]
Plasma TNFα and IL-12-p40 levels following intraperitioneal administration of ODN 1668 to C57Bl/6J mice in peptide-pretreated and control mice are shown in FIG. 14A and FIG. 14B. […] The statistical significance of changes in cytokine concentrations was determined by a two-way ANOVA test; *p<0.001.

TLR9-induced lethality = test: Survival of D-Gal pretreated mice after ODN 1668; type: in vivo, C57Bl/6J mice
Method: as §1
With the exception for LPS, administration of a purified TLR agonist is not lethal to mice. Mice, however, can be sensitized to TLR agonists by pretreatment with D-galactosamine (D-Gal). Survival of C57Bl/6J mice pretreated with D-galactosamine and challenged with different doses of ODN 1668 was tested. Mice were first administered with D-Gal intraperitoneally at the dose of 20 mg/mouse. Thirty minutes later mice were mock-treated with PBS or treated with a CPDP at the dose 200 nmol/mouse. ODN 1668 was administered 1 hour after peptide treatment at the dose of 3.93 or 7.86 nmol/mouse.

[1] = Stability and solubility of peptide solutions
TLR1/2 signaling = test: TNFα mRNA in BMDM stimulated with Pam3C; type: cell-based, mouse; details: peptide 40 μM; P3C 0.33 μM; 1 h
Method: (§2) The cDNA obtained was amplified with gene-specific primers for mouse HPRT, TNFα, IL-10, IL-12-p40, or IL-6 and Fast SYBR Green™ master mix (Applied Biosystemsm) as previously described.
(§3) CPDPs 9R34 and 9R11 were examined for inhibition of TLR1/2, TLR4, and TLR7 signaling. BMDMs were stimulated with Pam3C, E. coli LPS, or R848 and TNFαmRNA was measured 1 hour after stimulation. Mouse BMDM were treated with 40 μM of the indicated peptides for 30 minutes prior to stimulation with ODN 1668 (1 μM), E. coli LPS (0.1 μg/mL), R848 (2.85 μM), or P3C (0.33 μM). R848 and P3C were used to specifically activate TLR7 and TLR2 signaling, respectively. TNFαmRNA expression was measured 1 h after ODN 1668 challenge and normalized to the expression of HPRT. See results in FIG. 8A, FIG. 8B, and FIG. 8C. […] The statistical significance of changes was determined by a one-way ANOVA test; *p<0.01.

myDDosome = details: BMDM pretreated with CPDP; MyD88 IP, IRAK4 blot
Method: Four million BMDMs per well were plated in 6-well plates and treated with CPDP for 30 minutes prior to stimulation with ODN 1668 for 90 minutes. Cells were lysed in 600 p L of buffer containing 20 mM HEPES (pH 7.4), 150 mM NaCl, 10 mM NaF, 2 mM Na3VO4, 1 mM EDTA, 1 mM EGTA, 0.5% Triton X-100, 0.1 mM DTT, and protease inhibitor cocktail (Roche™). Cell extracts were incubated overnight with 1 μg of anti-mouse MyD88 antibody (AF3109) (R&D Systems™, followed by a 4-hour incubation with 20 μL protein G Sepharose beads (ThermoFisherm Scientific). The beads were then washed 3 times with 500 μL of lysis buffer and boiled in 60 μL of Laemmli sample buffer (Bio-Rad™). Cell extracts were electrophoresed on 10% acrylamide gel by SDS-PAGE and transferred to PVDF membrane (Bio-Rad™). Rabbit anti-MyD88 IgG was purchased from Cell Signaling™. Mouse anti-IRAK4 IgG was obtained from Abcam™. Alkaline phosphatase-conjugated secondary antibodies against mouse and rabbit IgG were purchased from Cell Signaling™. The stabilized substrate for alkaline phosphatase was from Promega™.
TLR stimulation causes formation of myDDosome, a signaling complex composed through interactions of IRAK and MyD88 death domains. To test if peptides inhibit myDDosome formation, MyD88 was immunoprecipitated from lysates of ODN-stimulated BMDM and the precipitates analyzed for IRAK4 presence. BMDM were lysed and lysates immunoprecipitated with anti-MyD88 Ab and immune complexes assessed with anti-IRAK4 Ab 3 hours after cell treatment with ODN 1668.

TLR7 signaling = test: TNFα mRNA in BMDM stimulated with R848; type: cell-based, mouse; details: peptide 40 μM; R848 2.85 μM; 1 h
Method: as §2, §3

[2] = higher ODN1668 dose 50 μg/mouse, peptide 200 nmol/mouse i.p.

Sequence | decrease of plasma IL-12-p40 peak (TLR9 signaling; 3-hour samples, peptide 200 nmol/mouse i.p., ODN 1668 7.86 nmol/mouse) | 1-hour plasma TNFα peak (TLR9 signaling; peptide 200 nmol/mouse i.p. 1 hour before ODN 1668 7.86 nmol/mouse) | ODN 1668-induced plasma cytokine levels (TNFα, IL-12-p40) (TLR9 signaling; peptide 200 nmol/mouse i.p., ODN 1668 7.86 nmol/mouse) | Pam3C-induced plasma cytokine levels (TNFα, IL-12-p40) (TLR2/1 signaling) | protection against ODN-induced lethality (overall) (TLR9-induced lethality; D-Gal pretreated mice) | protection of D-Gal pretreated mice (survival) (TLR9-induced lethality; ODN 1668 lower dose 3.93 nmol/mouse, peptide 200 nmol/mouse i.p.) | mice rescued (TLR9-induced lethality; [2]) | protection of D-Gal pretreated mice (survival) (TLR9-induced lethality; [2]) | concentration up to which stock solutions were stable [1] | signaling induced by TLR1/2 agonist (TNFα mRNA) (TLR1/2 signaling) | ODN 1668-induced myDDosome formation (myDDosome) | signaling induced by TLR7 agonist (TNFα mRNA) (TLR7 signaling)
ALRLCLEERD [Peptide 9R34-ΔN] | approximately 25 fold | eliminated | selectively inhibited only the ODN 1668-induced cytokines | did not affect cytokine levels | protects mice from TLR9-induced lethality | full protection | more than 50% | less protective | up to 10 mM |  |  | 
RSFWAQLGMALTRD (Synthetic peptide 9R11) |  |  |  |  |  |  |  |  |  | did not inhibit | prevented ODN 1668-induced myDDosome formation | did not inhibit
